Like-named read-outs stand apart in the source and are kept apart here.

Data set [1] can be described thus: Assay for stability in liver microsomes. It is filed as in vitro ADME. The settings on record: human liver microsomes. The method, then:
This experiment was intended to investigate the metabolic stability of the test compounds in human liver microsomes. The materials used in the experiment included 10 mM solutions of the test compounds and the control sample, human liver microsomes, and reduced nicotinamide adenine dinucleotide phosphate (NADPH) powder. In the experiment, a 100 mM potassium phosphate buffer was used as the buffer system.
The liver microsome working solution was prepared by diluting the liver microsome stock solution to 0.75 mg/mL using the 100 mM potassium phosphate buffer. Then, 5 μL of the 10 mM stock solution of the test compound was taken, and 195 μL of methanol was added. The mixture was well mixed to prepare a working solution A with a concentration of 0.25 mM.
Subsequently, the working solution A was diluted to 1.5 μM using the liver microsome working solution to prepare a compound-liver microsome mixed solution. Additionally, NADPH powder was dissolved in a 100) mM potassium phosphate buffer to prepare a 6 mM NADPH solution. The compound-liver microsome mixed solution was dispensed into a 96-well plate at 30 μL/well, with labeled time points of 0 min, 30 min, and 60 min. For 0-min samples, 180 μL of acetonitrile containing 100 ng/mL tolbutamide and 15 μL of the NADPH solution were added directly. The 96-well plate and the NADPH solution were then preheated under a 37° C. water bath for 5 min. After the preheating, 15 μL of the NADPH solution was added to each of the 30-min and 60-min sample wells. The plate was gently shaken for mixing and then incubated under the 37° C. water bath for the corresponding time. After the incubation was completed. 180 μL of acetonitrile containing 100 ng/mL tolbutamide was added to each sample well. The plate was sealed with a sealing film, shaken for 10 min (800 rpm/min), and then centrifuged for 15 min (4000 rpm). After the centrifugation, 50 μL of the supernatant was taken and added to a 96-well plate containing 150 μL of deionized water, and then the plate was sealed and shaken for 10 min (800 rpm) for uniform mixing. Subsequently sample analysis was performed using liquid chromatography-tandem mass spectrometry (LC-MS/MS).
The elimination rate constant and clearance rate of the test compound in liver microsomes were calculated using the following formulas: Remaining rate (%)=(peak area ratio of the compound to internal standard at any time point/peak area ratio of the compound to internal standard at 0 min)×100%,^4. T1/2=0.693/ke, where ke is the elimination rate constant and T1/2 is the half-life. Liver microsome intrinsic clearance rate (CLint(mic))=0.693/(T1/2× microsome protein concentration (mg/mL)). Liver intrinsic clearance rate (CLint(liver))=CLint(mic)×microsome protein-to-liver weight ratio (mg/g)×liver-to-body weight ratio (g/kg). In the formulas, CLint(mic) is the liver microsome intrinsic clearance rate, CLint(liver) is the liver intrinsic clearance rate, and CL(liver) is the liver clearance rate. For humans, the microsome protein-to-liver weight ratio was 45 mg/g, and the liver-to-body weight ratio was 20.7 g/kg.

Data set [2] is described as follows: Pharmacokinetic study in rats. It is filed as in vivo, Sprague-Dawley (SD) rats. The following applies: Sprague-Dawley, rat, plasma, male SD rats. The text has this:
A total of 6 healthy adult male Sprague-Dawley (SD) rats were provided by Zhejiang Vital River Laboratory Animal Technology Co., Ltd. For each test compound, 6 healthy adult male SD rats were selected and randomly divided into 2 groups: an intravenous administration (IV) group and an intragastric administration (PO) group. The LC-MS/MS method was used to determine the drug concentrations in the plasma of rats at different time points after intravenous and intragastric administration of the test compounds. This experiment was intended to investigate the pharmacokinetic performance of the test compounds in rats and to evaluate the pharmacokinetic characteristics. Each drug used in the experiment was prepared from the test compound powder: An appropriate amount of test compound powder was weighed out, and appropriate amounts of DMSO, a 10% aqueous Solutol HS 15 solution, and a 6% aqueous HP-β-CD solution were sequentially added according to a volume ratio of 5:10:85. The mixture was vortexed and sonicated until clarification. The final concentration of the drug in the IV group was 0.5 mg/mL, and the final concentration of the drug in the PO group was 1 mg/mL; the concentrations could be adjusted according to actual needs. For the drug in the PO group of Z504, an appropriate amount of test compound powder was weighed out, and an appropriate amount of 0.5% MC+0.2% Tween 80 aqueous solution was added. The mixture was well mixed by vortexing to give a 1 mg/mL homogeneous suspension: the concentration could be adjusted according to actual needs.
All experimental rats were fasted overnight, and food intake was resumed 4 h after administration. For the rats in the IV group, the administration volume was set at 2 mL/kg, with Z554 and Z915 administered at a dose of 0.5 mg/kg and the other compounds at a dose of 1 mg/kg. For the rats in the PO group, the administration volume was 10 mL/kg and the dose was 10 mg/kg. The administration amount was adjusted according to the body weight of the rats on the day of administration. In the experiment, blood samples were collected from the rats in the IV group at multiple time points (0.0833 h, 0.25 h, 0.5 h, 1 h, 2 h, 4 h, 7 h, and 24 h) after administration, while blood samples were collected from the PO group at 0.25 h, 0.5 h, 1 h, 2 h, 4 h, 7 h, and 24 h after administration, with approximately 100 μL collected each time via the orbital blood collection method.
The blood samples were placed in centrifuge tubes containing EDTA-K2 and centrifuged at 8000 rpm for 4 min within 30 min to separate the supernatant plasma. The resulting plasma samples were stored at −20° C. for later use. For sample analysis, 20 μL of each of plasma samples and calibration standards was added to a 96-well plate, and 160 μL of acetonitrile containing 100 ng/mL tolbutamide was added. The samples were vortexed for 5 min for uniform mixing, and then centrifuged at 4000 rpm for 15 min. After the centrifugation was completed, 50 μL of supernatant was added to a 96-well plate containing 150 μL of deionized water. The plate was then sealed and shaken for uniform mixing. Sample analysis was performed by LC-MS/MS.
The sampling volume could be adjusted according to actual needs, but the final concentration should be kept unchanged.

In data set [3] the test system is p-ERK in NCI-H441 cells (KRAS G12V mutation). Put plainly: Cell p-ERK assay (HTRF) in NCI-H441 cells. It is filed as cell-based, human. The following applies: NCI-H441 cells, 3 h compound incubation, HTRF p-ERK T202/Y204, read-out: H441 p-ERK IC50. A digest of the protocol:
(§1)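 Cells are plated (AsPC-1 at 10000, NCI-H441 at 20000 per well) and cultured overnight. Next day compound is added in a 3.16-fold dilution series with 0.1% DMSO and left 3 h. After lysis, p-ERK antibodies incubate 4 h before HTRF reading and four-parameter IC50 fitting.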

Data set [4] has as its system p-ERK in AsPC-1 cells (KRAS G12D mutation). In words: Cell p-ERK assay (HTRF) in AsPC-1 cells. It is filed as cell-based, human. The settings on record: AsPC-1 cells, 3 h compound incubation, HTRF p-ERK T202/Y204, read-out: AsPC-1 p-ERK IC50. A digest of the protocol:
as §1

The subject of data set [5] is AsPC-1 cells (KRAS G12D mutation). Put plainly: 3D cell proliferation assay (CellTiter Glo-3D), AsPC-1. The following applies: medium with 2% FBS, read-out: AsPC-1 AP IC50. It is filed as cell-based, human. A digest of the protocol: (§2)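 Proliferation of the KRAS-mutant lines NCI-H441 and AsPC-1 is measured over 5 days of compound treatment in medium with 2% FBS. Inhibition is computed from luminescence relative to DMSO and cell-free controls, and IC50 comes from a four-parameter curve.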

In a further data set the test system is NCI-H441 cells. In words: 3D cell proliferation assay (CellTiter Glo-3D), NCI-H441. It is filed as cell-based, human. The following applies: medium with 2% FBS, read-out: H441 AP IC50. A digest of the protocol: as §2
The mark [6] stands for this setting: Homo sapiens, ASPC1, 3D cell proliferation (CellTiter Glo-3D).
The mark [7] stands for this setting: Homo sapiens, NCI-H441, 3D cell proliferation (CellTiter Glo-3D).
Setting [8] is: 3D cell proliferation (CellTiter Glo-3D).

In data set [1] (NADPH, 37° C., 0/30/60 min), `CCn1c(-c2cc(N3CCN(C)CC3)cnc2[C@H](C)OC)c2c3cc(ccc31)-c1csc(n1)C[C@H](NC(=O)[C@H]1[C@H](C)[C@@H]1C)C(=O)N1CCC[C@H](N1)C(=O)OCC(C)(C)C2` (atropisomer, axis not shown; (Ra)) [Control compound 1, (1r,2R,3S)—N-((6^3S,Z)-1^1-ethyl-(Ra)-1^2-(2-((S)-1-methoxyethyl)-5-(4-methylpiperazin-1-yl)pyridin-3-yl)-10,10-dimethyl-5,7-dioxo-6^1,6^2,6^3,6^4,6^5,6^6-hexahydro-1^1H-8-oxa-2(4,2)-thiazola-1(5,3)-indola-6(1,3)-pyridazinacycloundecaphane-4-yl)-2,3-dimethylcyclopropane-1-carboxamide, reference compound] returned a half-life at 1 µM of 11.8 min. The CLint scaled at 1 µM in data set [1] (liver intrinsic clearance rate) was 136 mL/min/kg. Besides, the clearance in data set [2] (IV, dose 1 mg/kg) was 42.8 mL/min/kg. For the same molecule, the AUC in data set [2] (PO (intragastric), dose 10 mg/kg, read-out: AUC) came out at 1220 ng·h/mL. The Cmax in data set [2] (PO (intragastric), dose 10 mg/kg, read-out: Cmax) worked out at 365 ng/mL.
With `CO[C@@H](C)c1ncc(OCCN2CCS(=O)(=O)CC2)cc1-c1c2c3cc(ccc3n1C(C)C)-c1csc(n1)C[C@H](NC(=O)[C@H]1C[C@@H]1C)C(=O)N1CCC[C@H](N1)C(=O)OCC(C)(C)C2` (atropisomer, axis not shown; (Ra)) [Compound Z603, (1S,2S)—N-((6^3S,4S,Z)—(Ra)-1^2-(5-(2-(1,l-dioxidothiomorpholino)ethoxy)2-((S)-1-methoxyethyl)pyridin-3-yl)-1^1-isopropyl-10,10-dimethyl-5,7-dioxo-6^1,6^2,6^3,6^4,6^5,6^6-hexahydro-1^1H-8-oxa-2(4,2)-thiazola-1(5,3)-indola-6(1,3)-pyridazinacycloundecaphane-4-yl)-2-methylcyclopropane-1-carboxamide], the IC50 came to 220 pM in data set [3] (Homo sapiens, NCI-H441, 3 h); 600 pM in data set [4] (Homo sapiens, ASPC1, 3 h); 890 pM in data set [5] (setting [6]); 310 pM with NCI-H441 cells (setting [7]).
As to `CCn1c(-c2cc(OCCN3CCOC4(CC4)C3)cnc2[C@H](C)OC)c2c3cc(ccc31)-c1csc(n1)C[C@H](NC(=O)[C@H]1[C@H](C)[C@@H]1C)C(=O)N1CCC[C@H](N1)C(=O)OCC(C)(C)C2` [Compound Z83, (1r,2R,3S)—N-((6^3R,4R,Z)-1^2-(5-(2-(4-oxa-7-azaspiro[2,5]octan-7-yl)ethoxy)-2-((S)-1-methoxyethyl)pyridin-3-yl)-1′-ethyl-10,10-dimethyl-5,7-dioxo-6^1,6^2,6^3,6^4,6^5,6^6-hexahydro-1^1H-8-oxa-2(4,2)-thiazola-1(5,3)-indola-6(1,3)-pyridazinacycloundecaphane-4-yl)-2,3-dimethylcyclopropane-1-carboxamide], the IC50 in data set [3] was determined as 750 pM; in data set [4], 430 pM; in data set [5] (setting [8]) it was 770 pM; in the data set with NCI-H441 cells (setting [8]) it was 480 pM.
Take `CCn1c(-c2cc(C#CC(C)N3CCC3)cnc2[C@H](C)OC)c2c3cc(ccc31)-c1csc(n1)C[C@H](NC(=O)[C@H]1[C@H](C)[C@@H]1C)C(=O)N1CCC[C@H](N1)C(=O)OCC(C)(C)C2` (atropisomer, axis not shown; (Sa)) [Compound Z613-2, (1r,2R,3S)—N-((6^3S,4S,Z)-12-(5-(3-(azetidin-1-yl)but-1-yn-1-yl)-(Sa)-2-((S)-1-methoxyethyl)pyridin-3-yl)-4′-ethyl-10,10-dimethyl-5,7-dioxo-6^1,6^2,6^3,6^4,6^5,6^6-hexahydro-1^1H-8-oxa-2(4,2)-thiazola-(5,3)-indola-6(1,3)-pyridazinacycloundecaphane-4-yl)-2.3-dimethylcyclopropane-1-carboxamide]: the IC50 came out at 340 pM in data set [3] (Homo sapiens, NCI-H441, 3 h); 680 pM in data set [4] (Homo sapiens, ASPC1, 3 h); 790 pM in data set [5] (setting [6]); 700 pM in the data set with NCI-H441 cells (setting [7]).
